Test results taken from ChEMBL document CHEMBL4507288 (2021).

Tests used:
[1] = molecular target: 5-hydroxytryptamine receptor 1B (Homo sapiens, UniProt P28222); assay: GPCRScan assay: inhibition of 5-HT1B; parameters: radioligand conc. used [nm] 0.6 – 1.5, parental cells stable HEK
[2] = molecular target: 5-hydroxytryptamine receptor 1A (Homo sapiens, UniProt P08908); assay: GPCRScan assay: inhibition of 5-HT1A; parameters: radioligand conc. used [nm] 0.5 – 1.0, parental cells stable CHO
[3] = molecular target: 5-hydroxytryptamine receptor 2A (Homo sapiens, UniProt P28223); assay: GPCRScan assay: inhibition of 5-HT2A; parameters: radioligand conc. used [nm] 1.2 – 2.4, parental cells HEKT
[4] = molecular target: Kappa-type opioid receptor (Homo sapiens, UniProt P41145); assay: GPCRScan assay: inhibition of KOR; parameters: radioligand conc. used [nm] 0.6 – 1.2, parental cells stable HEK
Chain of Kappa-type opioid receptor (P41145 whole entry): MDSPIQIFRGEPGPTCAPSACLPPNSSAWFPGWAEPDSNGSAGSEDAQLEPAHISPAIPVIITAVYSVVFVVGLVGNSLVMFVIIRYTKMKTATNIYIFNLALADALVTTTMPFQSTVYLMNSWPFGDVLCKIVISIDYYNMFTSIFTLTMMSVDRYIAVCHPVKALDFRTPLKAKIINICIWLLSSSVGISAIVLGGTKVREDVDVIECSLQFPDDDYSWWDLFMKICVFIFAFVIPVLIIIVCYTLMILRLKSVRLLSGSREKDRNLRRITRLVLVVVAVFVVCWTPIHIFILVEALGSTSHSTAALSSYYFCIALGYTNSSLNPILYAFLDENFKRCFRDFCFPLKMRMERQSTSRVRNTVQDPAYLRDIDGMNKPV

[5] = molecular target: Myosin light chain kinase (Homo sapiens) (UniProt Q32MK0); conditions: Compound concentration 1000.0 nM
[6] = molecular target: Serine/threonine-protein kinase Nek3 (Homo sapiens) (UniProt P51956); conditions: Compound concentration 1000.0 nM
[7] = molecular target: Serine/threonine-protein kinase 36 (Homo sapiens) (UniProt Q9NRP7); conditions: Compound concentration 1000.0 nM
[8] = molecular target: cGMP-dependent protein kinase 2 (Homo sapiens) (UniProt Q13237); conditions: Compound concentration 1000.0 nM
[9] = molecular target: Serine/threonine-protein kinase MRCK gamma (Homo sapiens) (UniProt Q6DT37); conditions: Compound concentration 1000.0 nM
[10] = molecular target: Tyrosine-protein kinase BTK (Homo sapiens) (UniProt Q06187); conditions: Compound concentration 1000.0 nM
[11] = molecular target: MAP kinase-activated protein kinase 2 (Homo sapiens) (UniProt P49137); conditions: Compound concentration 1000.0 nM
[12] = system: Mast/stem cell growth factor receptor Kit (Homo sapiens), P10721 [L576P]; conditions: Compound concentration 1000.0 nM
[13] = molecular target: Calcium/calmodulin-dependent protein kinase type 1G (Homo sapiens) (UniProt Q96NX5); conditions: Compound concentration 1000.0 nM
Chain of Calcium/calmodulin-dependent protein kinase type 1G (Homo sapiens) (Q96NX5 whole entry): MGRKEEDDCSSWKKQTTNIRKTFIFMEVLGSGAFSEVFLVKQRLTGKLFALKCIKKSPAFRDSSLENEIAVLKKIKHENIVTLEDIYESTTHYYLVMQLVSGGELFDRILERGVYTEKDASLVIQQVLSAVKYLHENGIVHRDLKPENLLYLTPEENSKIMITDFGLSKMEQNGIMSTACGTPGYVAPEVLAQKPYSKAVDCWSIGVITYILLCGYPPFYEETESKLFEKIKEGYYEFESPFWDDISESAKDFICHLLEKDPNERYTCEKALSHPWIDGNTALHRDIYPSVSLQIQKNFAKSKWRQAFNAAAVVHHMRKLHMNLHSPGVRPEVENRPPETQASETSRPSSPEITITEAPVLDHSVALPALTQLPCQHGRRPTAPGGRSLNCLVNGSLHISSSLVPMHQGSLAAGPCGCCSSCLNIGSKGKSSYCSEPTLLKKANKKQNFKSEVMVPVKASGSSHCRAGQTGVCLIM

[14] = system: Tyrosine-protein kinase ABL1 (Homo sapiens), P00519 [T315I]; conditions: Compound concentration 1000.0 nM
[15] = molecular target: Serine/threonine-protein kinase Sgk2 (Homo sapiens) (UniProt Q9HBY8); conditions: Compound concentration 1000.0 nM
Chain of Serine/threonine-protein kinase Sgk2 (Homo sapiens) (Q9HBY8 whole entry): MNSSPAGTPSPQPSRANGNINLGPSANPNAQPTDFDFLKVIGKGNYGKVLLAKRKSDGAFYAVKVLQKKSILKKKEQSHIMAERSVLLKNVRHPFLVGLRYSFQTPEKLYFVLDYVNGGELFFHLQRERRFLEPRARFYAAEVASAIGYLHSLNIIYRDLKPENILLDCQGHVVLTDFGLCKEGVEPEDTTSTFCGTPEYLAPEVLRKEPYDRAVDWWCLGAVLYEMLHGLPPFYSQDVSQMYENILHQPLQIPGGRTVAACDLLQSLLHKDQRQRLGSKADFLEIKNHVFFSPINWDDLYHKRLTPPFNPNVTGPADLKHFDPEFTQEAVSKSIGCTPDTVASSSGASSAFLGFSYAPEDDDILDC

[16] = molecular target: Phosphatidylinositol 5-phosphate 4-kinase type-2 gamma (Homo sapiens) (UniProt Q8TBX8); conditions: Compound concentration 1000.0 nM
[17] = molecular target: Calcium/calmodulin-dependent protein kinase type 1 (Homo sapiens) (UniProt Q14012); conditions: Compound concentration 1000.0 nM
Chain of Calcium/calmodulin-dependent protein kinase type 1 (Homo sapiens) (Q14012 whole entry, looked up): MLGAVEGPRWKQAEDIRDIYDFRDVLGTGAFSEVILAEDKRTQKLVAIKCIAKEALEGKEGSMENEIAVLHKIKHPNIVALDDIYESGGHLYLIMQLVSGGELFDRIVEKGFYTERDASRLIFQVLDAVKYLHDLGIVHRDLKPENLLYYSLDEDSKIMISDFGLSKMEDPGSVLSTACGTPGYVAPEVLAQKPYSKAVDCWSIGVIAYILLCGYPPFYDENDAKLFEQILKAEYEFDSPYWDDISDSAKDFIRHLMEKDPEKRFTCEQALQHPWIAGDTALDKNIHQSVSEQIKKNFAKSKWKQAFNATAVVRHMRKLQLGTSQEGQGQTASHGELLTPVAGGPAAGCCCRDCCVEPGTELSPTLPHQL

[18] = molecular target: Serine/threonine-protein kinase WNK4 (Homo sapiens) (UniProt Q96J92); conditions: Compound concentration 1000.0 nM
[19] = molecular target: Ribosomal protein S6 kinase alpha-2 (Homo sapiens) (UniProt Q15349); conditions: Compound concentration 1000.0 nM
[20] = system: Mast/stem cell growth factor receptor Kit (Homo sapiens), P10721 [V559D,T670I]; conditions: Compound concentration 1000.0 nM
Chain of Mast/stem cell growth factor receptor Kit (Homo sapiens), P10721 [V559D,T670I] (P10721 whole entry V559D/T670I): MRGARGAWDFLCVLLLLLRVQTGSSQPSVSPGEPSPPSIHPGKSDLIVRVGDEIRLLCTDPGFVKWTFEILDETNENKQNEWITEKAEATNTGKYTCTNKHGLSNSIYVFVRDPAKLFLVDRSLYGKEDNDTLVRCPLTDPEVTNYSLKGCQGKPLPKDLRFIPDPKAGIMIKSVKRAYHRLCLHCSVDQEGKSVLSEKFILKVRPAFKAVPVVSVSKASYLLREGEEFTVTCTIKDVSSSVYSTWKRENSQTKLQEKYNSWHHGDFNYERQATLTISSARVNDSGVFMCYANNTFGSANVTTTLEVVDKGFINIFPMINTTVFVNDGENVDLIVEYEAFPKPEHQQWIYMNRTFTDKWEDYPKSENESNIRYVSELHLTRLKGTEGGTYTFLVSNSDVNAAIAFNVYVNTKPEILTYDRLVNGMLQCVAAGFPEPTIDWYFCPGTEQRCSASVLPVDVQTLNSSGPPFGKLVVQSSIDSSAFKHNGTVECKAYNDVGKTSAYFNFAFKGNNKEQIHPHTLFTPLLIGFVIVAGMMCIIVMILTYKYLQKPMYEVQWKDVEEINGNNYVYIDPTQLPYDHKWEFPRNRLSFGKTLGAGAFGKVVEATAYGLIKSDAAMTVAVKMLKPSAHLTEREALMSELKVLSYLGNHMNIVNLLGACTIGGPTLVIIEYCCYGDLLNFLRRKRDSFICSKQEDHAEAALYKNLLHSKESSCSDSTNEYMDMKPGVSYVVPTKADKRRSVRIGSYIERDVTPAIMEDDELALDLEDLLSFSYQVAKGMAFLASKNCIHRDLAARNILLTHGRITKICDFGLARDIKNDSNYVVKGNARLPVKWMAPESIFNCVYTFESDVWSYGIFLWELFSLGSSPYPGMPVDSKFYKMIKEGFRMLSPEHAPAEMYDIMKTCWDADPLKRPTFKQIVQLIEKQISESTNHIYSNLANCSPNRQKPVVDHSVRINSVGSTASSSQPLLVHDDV

[21] = system: Mast/stem cell growth factor receptor Kit (Homo sapiens), P10721 [V559D,V654A]; conditions: Compound concentration 1000.0 nM
[22] = molecular target: Phosphorylase b kinase gamma catalytic chain, skeletal muscle/heart isoform (Homo sapiens) (UniProt Q16816); conditions: Compound concentration 1000.0 nM
[23] = molecular target: Phosphatidylinositol 3-kinase catalytic subunit type 3 (Homo sapiens) (UniProt Q8NEB9); conditions: Compound concentration 1000.0 nM
[24] = molecular target: Serine/threonine-protein kinase LATS2 (Homo sapiens) (UniProt Q9NRM7); conditions: Compound concentration 1000.0 nM
[25] = molecular target: Ephrin type-B receptor 2 (Homo sapiens) (UniProt P29323); conditions: Compound concentration 1000.0 nM
[26] = molecular target: Mitogen-activated protein kinase 12 (Homo sapiens) (UniProt P53778); conditions: Compound concentration 1000.0 nM
[27] = system: Epidermal growth factor receptor (Homo sapiens), P00533 [G719S]; conditions: Compound concentration 1000.0 nM
[28] = molecular target: Leucine-rich repeat serine/threonine-protein kinase 2 (Homo sapiens) (UniProt Q5S007); conditions: Compound concentration 1000.0 nM
Chain of Leucine-rich repeat serine/threonine-protein kinase 2 (Homo sapiens) (Q5S007 whole entry): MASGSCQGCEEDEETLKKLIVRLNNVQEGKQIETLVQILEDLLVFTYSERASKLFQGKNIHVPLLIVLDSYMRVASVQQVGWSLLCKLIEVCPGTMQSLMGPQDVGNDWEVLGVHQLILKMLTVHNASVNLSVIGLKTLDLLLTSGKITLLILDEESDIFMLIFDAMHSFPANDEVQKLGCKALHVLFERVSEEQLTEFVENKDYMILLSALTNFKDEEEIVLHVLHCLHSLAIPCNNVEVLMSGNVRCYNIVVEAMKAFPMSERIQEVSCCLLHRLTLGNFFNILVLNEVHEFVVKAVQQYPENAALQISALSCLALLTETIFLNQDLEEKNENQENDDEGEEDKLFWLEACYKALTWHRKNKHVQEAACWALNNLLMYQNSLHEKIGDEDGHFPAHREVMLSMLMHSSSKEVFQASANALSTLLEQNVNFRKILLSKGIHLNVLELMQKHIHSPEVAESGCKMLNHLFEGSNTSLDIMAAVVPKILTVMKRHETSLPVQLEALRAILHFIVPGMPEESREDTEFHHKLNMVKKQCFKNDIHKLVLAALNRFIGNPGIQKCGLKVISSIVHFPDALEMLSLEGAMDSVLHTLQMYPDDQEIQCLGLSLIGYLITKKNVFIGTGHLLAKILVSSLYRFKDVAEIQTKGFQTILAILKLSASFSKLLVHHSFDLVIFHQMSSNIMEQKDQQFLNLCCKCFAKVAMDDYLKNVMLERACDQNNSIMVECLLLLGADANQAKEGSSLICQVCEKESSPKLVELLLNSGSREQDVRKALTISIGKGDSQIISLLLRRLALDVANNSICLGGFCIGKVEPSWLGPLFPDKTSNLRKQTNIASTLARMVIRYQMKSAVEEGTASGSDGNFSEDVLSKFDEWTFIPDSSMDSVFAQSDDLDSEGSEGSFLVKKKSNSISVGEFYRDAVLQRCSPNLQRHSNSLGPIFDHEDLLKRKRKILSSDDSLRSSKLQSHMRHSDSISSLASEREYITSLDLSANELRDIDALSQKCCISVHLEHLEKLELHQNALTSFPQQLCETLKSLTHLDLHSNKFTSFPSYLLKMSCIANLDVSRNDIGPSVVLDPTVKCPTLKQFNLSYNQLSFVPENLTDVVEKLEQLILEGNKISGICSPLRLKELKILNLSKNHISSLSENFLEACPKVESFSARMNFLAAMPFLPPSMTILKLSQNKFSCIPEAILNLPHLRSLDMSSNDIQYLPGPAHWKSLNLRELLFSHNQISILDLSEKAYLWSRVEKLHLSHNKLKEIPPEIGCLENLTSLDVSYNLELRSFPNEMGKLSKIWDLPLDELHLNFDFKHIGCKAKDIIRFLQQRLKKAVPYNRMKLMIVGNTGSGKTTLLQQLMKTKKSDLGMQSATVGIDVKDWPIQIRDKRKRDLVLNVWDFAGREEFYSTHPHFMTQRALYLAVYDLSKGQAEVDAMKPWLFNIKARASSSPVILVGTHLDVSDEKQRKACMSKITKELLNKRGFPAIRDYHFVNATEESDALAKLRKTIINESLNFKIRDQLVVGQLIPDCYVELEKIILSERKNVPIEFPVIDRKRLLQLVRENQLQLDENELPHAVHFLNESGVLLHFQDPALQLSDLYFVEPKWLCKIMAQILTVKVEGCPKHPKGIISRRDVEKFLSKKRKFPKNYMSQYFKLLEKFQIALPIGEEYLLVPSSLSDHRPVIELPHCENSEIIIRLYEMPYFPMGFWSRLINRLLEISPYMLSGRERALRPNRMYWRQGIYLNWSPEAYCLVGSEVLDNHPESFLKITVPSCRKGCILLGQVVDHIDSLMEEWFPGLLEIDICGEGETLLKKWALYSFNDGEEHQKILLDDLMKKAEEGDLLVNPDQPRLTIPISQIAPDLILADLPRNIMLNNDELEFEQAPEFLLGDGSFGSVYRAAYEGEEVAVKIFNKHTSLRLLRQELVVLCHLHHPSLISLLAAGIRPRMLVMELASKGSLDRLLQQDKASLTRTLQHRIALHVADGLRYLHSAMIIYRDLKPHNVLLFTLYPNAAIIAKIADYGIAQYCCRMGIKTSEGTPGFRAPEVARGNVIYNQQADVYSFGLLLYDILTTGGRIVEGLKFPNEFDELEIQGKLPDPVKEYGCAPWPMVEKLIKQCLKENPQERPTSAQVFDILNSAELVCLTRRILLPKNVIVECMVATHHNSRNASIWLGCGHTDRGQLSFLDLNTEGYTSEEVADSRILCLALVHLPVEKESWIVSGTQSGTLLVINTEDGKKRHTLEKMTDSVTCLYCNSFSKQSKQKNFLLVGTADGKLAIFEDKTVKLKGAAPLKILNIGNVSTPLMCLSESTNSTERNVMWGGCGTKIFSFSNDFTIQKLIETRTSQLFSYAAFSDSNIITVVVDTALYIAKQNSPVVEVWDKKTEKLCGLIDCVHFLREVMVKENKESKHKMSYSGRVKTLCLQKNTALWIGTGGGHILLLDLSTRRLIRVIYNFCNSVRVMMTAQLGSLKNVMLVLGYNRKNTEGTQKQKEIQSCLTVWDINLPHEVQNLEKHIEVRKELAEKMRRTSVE

[29] = system: Epidermal growth factor receptor (Homo sapiens), P00533 [UNDEFINED MUTATION]; conditions: Compound concentration 1000.0 nM
[30] = molecular target: Serine/threonine-protein kinase WNK1 (Homo sapiens) (UniProt Q9H4A3); conditions: Compound concentration 1000.0 nM
[31] = molecular target: Activin receptor type-2A (Homo sapiens) (UniProt P27037); conditions: Compound concentration 1000.0 nM
[32] = molecular target: RAF proto-oncogene serine/threonine-protein kinase (Homo sapiens) (UniProt P04049); conditions: Compound concentration 1000.0 nM
[33] = molecular target: Serine/threonine-protein kinase B-raf (Homo sapiens) (UniProt P15056); conditions: Compound concentration 1000.0 nM
[34] = system: Receptor-type tyrosine-protein kinase FLT3 (Homo sapiens), P36888 [R834Q]; conditions: Compound concentration 1000.0 nM
[35] = molecular target: Non-receptor tyrosine-protein kinase TYK2 (Homo sapiens) (UniProt P29597); conditions: Compound concentration 1000.0 nM
[36] = system: Epidermal growth factor receptor (Homo sapiens), P00533 [UNDEFINED MUTATION]; conditions: Compound concentration 1000.0 nM; remark: listed apart in the source
[37] = molecular target: SNF-related serine/threonine-protein kinase (Homo sapiens) (UniProt Q9NRH2); conditions: Compound concentration 1000.0 nM
[38] = molecular target: Angiopoietin-1 receptor (Homo sapiens) (UniProt Q02763); conditions: Compound concentration 1000.0 nM
[39] = molecular target: Bone morphogenetic protein receptor type-1B (Homo sapiens) (UniProt O00238); conditions: Compound concentration 1000.0 nM
[40] = molecular target: Serine/threonine-protein kinase DCLK1 (Homo sapiens) (UniProt O15075); conditions: Compound concentration 1000.0 nM
[41] = molecular target: Serine/threonine-protein kinase ULK2 (Homo sapiens) (UniProt Q8IYT8); conditions: Compound concentration 1000.0 nM
[42] = molecular target: Casein kinase II subunit alpha (Homo sapiens) (UniProt P68400); conditions: Compound concentration 1000.0 nM
[43] = molecular target: NUAK family SNF1-like kinase 1 (Homo sapiens) (UniProt O60285); conditions: Compound concentration 1000.0 nM
[44] = molecular target: MAP kinase-interacting serine/threonine-protein kinase 2 (Homo sapiens) (UniProt Q9HBH9); conditions: Compound concentration 1000.0 nM
[45] = molecular target: Peripheral plasma membrane protein CASK (Homo sapiens) (UniProt O14936); conditions: Compound concentration 1000.0 nM

**Q.** Which Ki [1] does the source give for `CC(C)(C)OC(=O)N1CCCC1CNC1CCC(c2cc(F)ccc2F)(S(=O)(=O)c2ccc(Cl)cc2)CC1` (stereo unspecified) [GSI-NC] here?
**A.** 0.946 µM

**Q.** And the Ki [2]?
**A.** 2.77 µM

**Q.** What about the Ki [3] of the same compound?
**A.** 0.478 µM

**Q.** And the Ki ([4]; read-out: Ki)?
**A.** 3.3 µM

**Q.** And the Ki ([4]; read-out: pKi (converted))?
**A.** 3.31 µM

**Q.** What does the source list for `O=S(=O)(NC1CCC(c2cc(F)ccc2F)(S(=O)(=O)c2ccc(Cl)cc2)CC1)C(F)(F)F` (stereo unspecified) [MRK-560]?
**A.** residual activity [5]: 86%; residual activity [6]: 81%; residual activity [7]: 100%; residual activity [8]: 100%; residual activity [9]: 100%; residual activity [10]: 100%; residual activity [11]: 93%; residual activity [12]: 100%; residual activity [13]: 100%; residual activity [14]: 90%; residual activity [15]: 93%; residual activity [16]: 100%; residual activity [17]: 84%; residual activity [18]: 100%; residual activity [19]: 100%; residual activity [20]: 100%; residual activity [21]: 88%; residual activity [22]: 80%; residual activity [23]: 100%; residual activity [24]: 0%; residual activity [25]: 100%; residual activity [26]: 89%; residual activity [27]: 100%; residual activity [28]: 96%; residual activity [29]: 0%; residual activity [30]: 100%; residual activity [31]: 63%; residual activity [32]: 100%; residual activity [33]: 93%; residual activity [34]: 100%; residual activity [35]: 86%; residual activity [36]: 100%; residual activity [37]: 100%; residual activity [38]: 85%; residual activity [39]: 100%; residual activity [40]: 100%; residual activity [41]: 100%; residual activity [42]: 85%; residual activity [43]: 83%; residual activity [44]: 57%; residual activity [45]: 68%
